Target: Tyrosine-protein kinase JAK2 (Homo sapiens, UniProt O60674)
Test: Tyrosine Kinase Assay: The assays were performed in V-bottom 384-well plates. […] The reaction was initiated by the combination of JAK2 with substrates and test compounds. The reaction was incubated at room temperature for 60 min. and terminated by adding 45 ul of 35 mM EDTA to each sample. The reaction mixture was analyzed on the Caliper LABCHIP 3000 by electrophoretic separation of the fluorescent substrate and phosphorylated product.

Tyrosine-protein kinase JAK2, sequence (O60674 whole entry): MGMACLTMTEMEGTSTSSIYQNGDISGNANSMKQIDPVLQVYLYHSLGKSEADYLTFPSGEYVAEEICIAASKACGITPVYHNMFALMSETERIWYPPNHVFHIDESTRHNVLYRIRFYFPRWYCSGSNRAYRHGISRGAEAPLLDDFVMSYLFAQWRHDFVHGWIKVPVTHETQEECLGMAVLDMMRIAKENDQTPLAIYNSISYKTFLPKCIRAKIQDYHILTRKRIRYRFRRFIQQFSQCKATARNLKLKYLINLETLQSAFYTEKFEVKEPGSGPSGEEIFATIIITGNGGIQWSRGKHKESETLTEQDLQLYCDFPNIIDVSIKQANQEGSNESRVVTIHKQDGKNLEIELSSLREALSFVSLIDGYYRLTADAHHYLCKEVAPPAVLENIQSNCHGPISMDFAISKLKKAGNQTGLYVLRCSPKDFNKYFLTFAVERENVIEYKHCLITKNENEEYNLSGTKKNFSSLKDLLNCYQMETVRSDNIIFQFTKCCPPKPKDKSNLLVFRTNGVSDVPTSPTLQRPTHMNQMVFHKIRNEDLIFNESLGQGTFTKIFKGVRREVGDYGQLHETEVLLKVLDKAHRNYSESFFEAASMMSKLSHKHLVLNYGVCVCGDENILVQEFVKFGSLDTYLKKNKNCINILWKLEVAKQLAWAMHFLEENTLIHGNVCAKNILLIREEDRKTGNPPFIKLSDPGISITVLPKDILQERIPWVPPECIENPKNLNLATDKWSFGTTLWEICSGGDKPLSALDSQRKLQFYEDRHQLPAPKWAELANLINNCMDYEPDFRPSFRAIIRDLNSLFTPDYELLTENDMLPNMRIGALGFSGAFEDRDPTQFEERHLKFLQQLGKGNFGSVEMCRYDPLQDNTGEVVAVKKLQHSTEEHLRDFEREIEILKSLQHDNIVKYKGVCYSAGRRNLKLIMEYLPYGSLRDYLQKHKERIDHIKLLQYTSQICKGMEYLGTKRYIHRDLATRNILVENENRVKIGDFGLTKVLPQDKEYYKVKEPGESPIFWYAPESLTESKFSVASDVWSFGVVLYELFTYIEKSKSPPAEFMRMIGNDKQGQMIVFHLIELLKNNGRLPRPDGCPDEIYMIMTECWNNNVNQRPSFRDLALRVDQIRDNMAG

Row | Structure (SMILES) | IC50 [nM]
1 | COc1cccc(-c2cc(C(N)=O)c3[nH]c4cc(NC(=O)OC(C)(C)C)ccc4c3c2)c1 | 160
2 | COc1ccc(-c2cc(C(N)=O)c3[nH]c4cc(C(=O)N5CCCC(C)(O)C5)ccc4c3c2)cc1F (configuration not stated) | 1

Reference: ChEMBL document CHEMBL3638719, “Carbazole and carboline kinase inhibitors” (2014)
